Consider 4 molecules from ChEMBL document CHEMBL1201862, “PubChem BioAssay data set” (2004).

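In this assay, cells in 96-well plates receive the compound at five concentrations for 48 hours. Endpoints are linearly interpolated between the surrounding concentrations. GI50 is the concentration that inhibits growth by half.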 Active and inactive are the calls of the source. Cut-off read from the data, not from the text of the source: active = GI50 up to about 1.1 µM and inactive = higher. A value given as a limit tells only on which side of the number the result lay.

Test systems include CCRF-CEM; HCT-15; HOP-62; IGROV-1; K562; LOX IMVI; MOLT-4; NCI-H23; OVCAR-3; OVCAR-5; OVCAR-8; RPMI-8226; SK-MEL-28; SK-MEL-2; SNB-19; SNB-75; U-251; UACC-257; UACC-62; UO-31.
Assay in all cases: DTP human tumour cell line panel, 48 h

Usually GI50 stands for the concentration at which growth is held to half of that of the control. Turning to `O=C1/C(=C/c2ccccc2)NC(=S)N1CN1CCOCC1`, the GI50 with CCRF-CEM is > 100 µM (inactive); in the assay on HCT-15, more than 100 µM; with HOP-62, > 100 µM (inactive); in the assay with IGROV-1, > 100 µM (inactive); with K562 it was > 100 µM (inactive); in the assay with LOX IMVI it was > 100 µM (inactive). Further, the GI50 in the assay with MOLT-4, in the assay on NCI-H23, in the assay on OVCAR-3, with OVCAR-5, in the assay with OVCAR-8 and in the assay on RPMI-8226 was > 100 µM (inactive) in each case. Also, the GI50 in the assay on SK-MEL-28, in the assay on SK-MEL-2, in the assay with SNB-19, with SNB-75, in the assay on U-251 and in the assay on UACC-257 was > 100 µM (inactive) in each case. Further, the GI50 with UACC-62 and in the assay on UO-31 was > 100 µM (inactive) each time.

Take `COc1ccc(C2=NN(c3nsc4ccccc34)C(=O)CC2)cc1`: the GI50 in the assay with CCRF-CEM is 82.6 µM (inactive); with HCT-15, 57.9 µM; with HOP-62, > 100 µM (inactive); with IGROV-1 it was 70.1 µM (inactive); in the assay on K562 it was 36 µM (inactive); with LOX IMVI, 89.1 µM (inactive). Further, the GI50 with MOLT-4 was 44 µM (inactive); in the assay on NCI-H23, > 100 µM (inactive); in the assay with OVCAR-3 it was 32.3 µM (inactive); in the assay on OVCAR-5, > 100 µM (inactive); in the assay with OVCAR-8, > 100 µM (inactive); with RPMI-8226 it was 30.5 µM (inactive). The GI50 with SK-MEL-28 was > 100 µM (inactive); in the assay on SK-MEL-2, > 100 µM (inactive); in the assay on SNB-19, 76 µM (inactive); in the assay with SNB-75 it was 84.3 µM (inactive); in the assay on U-251, 91.4 µM (inactive); with UACC-257, > 100 µM (inactive). Further, the GI50 in the assay on UACC-62 was > 100 µM (inactive); in the assay on UO-31, 59.2 µM (inactive).

As for `COc1cccc(CC(C)N)c1` (stereo not given), the GI50 with CCRF-CEM is > 100 µM (inactive); with HCT-15 it was more than 100 µM; in the assay with HOP-62, > 100 µM (inactive); with IGROV-1 it was > 100 µM (inactive); in the assay with K562 it was > 100 µM (inactive); in the assay with LOX IMVI, > 100 µM (inactive). In addition, the GI50 in the assay with MOLT-4, with NCI-H23, in the assay on OVCAR-3, in the assay on OVCAR-5, with OVCAR-8 and in the assay with RPMI-8226 was > 100 µM (inactive) in each case. The GI50 in the assay on SK-MEL-28, in the assay on SK-MEL-2, in the assay on SNB-19, with SNB-75, with U-251 and with UACC-257 was > 100 µM (inactive) each time. Also, the GI50 in the assay with UACC-62 and in the assay on UO-31 was > 100 µM (inactive) each time.

As to `Cc1nc2cccc(F)c2c(=O)n1C1CCCCNC1=O` (stereo not given), the GI50 in the assay on CCRF-CEM is > 10 µM (inactive); in the assay on HCT-15, more than 10 µM; in the assay on HOP-62, > 10 µM (inactive); in the assay on IGROV-1, > 10 µM (inactive); in the assay on K562, > 10 µM (inactive); with LOX IMVI, > 10 µM (inactive). Further, the GI50 in the assay on MOLT-4, in the assay on NCI-H23, with OVCAR-3, in the assay with OVCAR-5, in the assay on OVCAR-8 and with RPMI-8226 was > 10 µM (inactive) each time. Moreover, the GI50 with SK-MEL-28, in the assay with SK-MEL-2, in the assay on SNB-19, in the assay with SNB-75, with U-251 and in the assay on UACC-257 was > 10 µM (inactive) each time. Also, the GI50 in the assay on UACC-62 and in the assay with UO-31 was > 10 µM (inactive) throughout.
